Measured values reported in publication PMC8196580, “Identification of Kaurane-Type Diterpenes as Inhibitors of Leishmania Pteridine Reductase I” (Molecules, 2021).
Like-named read-outs stand apart in the source and are kept apart here.

How the values were obtained:
[1] = test system: L. major; assay: ChEMBL dataset of pIC50 values against L. major used for the RF model (Table S1); assay type: cell-based, Leishmania major; note: call rule not given here
Text: From the ChEMBL database (https://www.ebi.ac.uk/chembl/, accessed on 10 January 2021), we selected a diverse set of 1085 structures that were initially classified according to their predicted activity against L. major.
Excluding these structures minimized the differences in activity values resulting from errors and differences in experimental protocols. […] Standardizer software [JChem, version 16.11.28 (2016), calculation module developed by ChemAxon, https://www.chemaxon.com/, accessed on 20 January 2021] was used to canonize all simplified molecular-input line-entry system (SMILES) codes. After duplicate structures were removed, those with higher pIC50 values were eliminated, facilitating the generation of more restrictive models.

[2] = test system: L. major; set-up: method as in ChEMBL; settings: ref ChEMBL, cited from earlier work
[3] = Active/Inactive class assigned to the ChEMBL pIC50 value for Random forest model construction, ref ChEMBL
[4] = ChemBL structures with pIC50 values used for Random forest model construction, L. major
[5] = Active/Inactive class assigned to ChemBL structures for Random forest model construction (Table S1)
[6] = ChemBL structures with pIC50 values used for Random forest model construction (Table S1)

Row | Structure (SMILES) | Outcome [1, 3] | pIC50 Value [2, 4] | Outcome [1, 5] | pIC50 Value [2, 6]
1 | COc1ccccc1-c1nnc(-c2ccc(C(=O)N/N=C/c3ccccc3[N+](=O)[O-])cc2)o1 [CHEMBL4104790] | Inactive | 4.19 |  | 
2 | CCCCCN(CCCCC)c1ccc(Nc2c3ccccc3nc3ccccc23)cc1 [CHEMBL89031] |  |  | Active | 6.80
3 | CSc1cccc(Nc2ncnc3ccc([N+](=O)[O-])cc23)c1 [CHEMBL3760067] | Inactive | 4.70 |  | 
4 | COc1ccccc1-c1nnc(-c2ccc(C(=O)N/N=C/c3c(O)cc(O)cc3O)cc2)o1 [CHEMBL4080097] |  |  | Active | 5.32
5 | CC(=O)C1=C(C)NC(=O)NC1c1cccc([N+](=O)[O-])c1 (stereo not drawn) [CHEMBL3785264] |  |  | Active | 5.61
6 | COc1cc(/C=N\NC(N)=S)ccc1OCc1cn(CC(=O)c2ccccc2)nn1 [CHEMBL4175538] | Active | 5.27 |  | 
7 | Cc1nc(-c2ccccn2)nc(N2CCC(Cc3ccccc3)C2)c1Cl (stereo not drawn) [CHEMBL474899] | Active | 5.05 |  | 
8 | CN[C@@H](C)[C@H]1CC[C@H]2[C@@H]3CC[C@H]4[C@@H](OC(C)=O)[C@@H](NC(=O)C=C(C)C)CC[C@]4(C)[C@H]3CC[C@]12C [CHEMBL504923] |  |  | Active | 5.48
9 | CC1=C(C(=O)/C=C/c2ccc(O)cc2)C(c2ccccc2)NC(=O)N1C (stereo not drawn) [CHEMBL3787563] |  |  | Active | 5.77
10 | CCCCCCCc1ccc(Nc2c3ccccc3nc3ccccc23)cc1 [CHEMBL316058] |  |  | Active | 6.10
11 | CC(C)N1CSC(=S)N(C(C)c2ccccc2)C1 (stereo not drawn) [CHEMBL4283106] | Inactive | 4.67 |  | 
12 | COc1cc(OC)c2c(C)[n+](-c3c(C)cccc3C)c(C)cc2c1.F[B-](F)(F)F [CHEMBL521247] |  |  | Active | 5.46
13 | Cc1cc(C)nc(SCc2nn3c(-c4ccccc4)nnc3s2)n1 [CHEMBL1256856] | Inactive | 4.00 |  | 
14 | CCCC/C=C/C=C/c1nc2cc(OC)ccc2n2cccc12 [CHEMBL3260215] |  |  | Active | 5.60
15 | CN(C)c1ccc(Nc2c3ccc(NC(=O)CCN4CCCC4)cc3nc3cc(NC(=O)CCN4CCCC4)ccc23)cc1 [CHEMBL336434] | Inactive | 4.90 |  | 
16 | CC1(O)CCCC2(C)Cc3c(O)ccc(O)c3CC12 (stereo not drawn) [CHEMBL255315] | Inactive | 4.99 |  | 
17 | c1ccc(-c2nc3ccccn3c2-c2cncnc2)cc1 [CHEMBL2151871] | Inactive | 4.00 |  | 
18 | Cn1cc(C2N(c3ccccc3)C(=O)C2(c2ccccc2)c2ccccc2)c2ccccc21 (stereo not drawn) [CHEMBL2071560] |  |  | Active | 5.85
19 | CCCCCCOc1ccc(Nc2c3ccccc3nc3ccccc23)cc1 [CHEMBL89758] |  |  | Active | 6.00
20 | O=[N+]([O-])c1ccc2ncnc(Nc3ccccc3Cl)c2c1 [CHEMBL3758623] | Active | 5.19 |  | 
21 | CCCCCCNc1ccc(Nc2c3ccc(Cl)cc3nc3ccc(OC)cc23)cc1 [CHEMBL420434] |  |  | Active | 6.70
22 | Cn1cc(/C=N/C(c2ccccc2)c2ccccc2)c2ccccc21 [CHEMBL2071556] |  |  | Active | 5.73
23 | CC1=N[C@H](C)Cc2c(-c3ccc4ccccc4c3)ccc(O)c21 [CHEMBL1276918] | Inactive | 4.46 |  | 
24 | NP(=O)(OCc1ccc([N+](=O)[O-])cc1)N(CCCl)CCCl (stereo not drawn) [CHEMBL144896] | Inactive | 4.52 |  | 
25 | CCN1CSC(=S)N(CC(=O)O)C1 [CHEMBL4294782] | Inactive | 4.34 |  | 
26 | O=C(c1ccccc1)N1CCN(c2nnc(-c3ccc([N+](=O)[O-])o3)s2)CC1 [CHEMBL195349] | Inactive | 4.93 |  | 

Row | Structure (SMILES) | Outcome [1, 3] | pIC50 Value [2, 4] | Outcome [1, 5] | pIC50 Value [2, 6]
27 | COc1cc(C2NC(=O)NC(C)=C2C(C)=O)ccc1O (stereo not drawn) [CHEMBL1342564] |  |  | Active | 5.59
28 | O=CN/N=C/c1ccccc1O [CHEMBL1172261] | Inactive | 3.84 |  | 
29 | C/C=C/C=C/c1nc2cccc(OC)c2n2cccc12 [CHEMBL3260209] |  |  | Active | 5.48
30 | CC(C)(C)c1ccc(CN2CCN(c3ccnc4cc(Cl)ccc34)CC2)cc1 [CHEMBL1256730] | Inactive | 4.21 |  | 
31 | COc1ccc2c(c1)C=C(/C=C/C(=O)c1ccc(Cl)c(Cl)c1)CO2 [CHEMBL3329270] |  |  | Active | 6.00
32 | CNc1ccc(Nc2c3ccccc3nc3ccccc23)cc1OC(C)C [CHEMBL439951] |  |  | Active | 5.89
33 | COc1cc(C(=O)/C=C/C2=Cc3cc(Cl)ccc3OC2)cc(OC)c1OC [CHEMBL1094315] |  |  | Active | 5.69
34 | Cc1ccc(C2=NNC(c3cc4cccc(C)c4nc3Cl)C2)s1 (stereo not drawn) [CHEMBL2235720] |  |  | Active | 5.58
35 | COc1ccc(-c2ccc3ccccc3c2)c2c1C(C)=N[C@H](C)C2 [CHEMBL1276917] | Inactive | 4.55 |  | 
36 | O=[N+]([O-])c1ccc(-c2c(-c3ccccc3)nc3ccccn23)cc1 [CHEMBL2151862] |  |  | Active | 5.31
37 | CC(C)=CC(=O)N[C@H]1CC[C@@]2(C)[C@@H](CC[C@@H]3[C@@H]2CC[C@]2(C)C([C@H](C)N(C)C)=CC[C@@H]32)[C@H]1O [CHEMBL496487] | Inactive | 4.95 |  | 
38 | COc1cccc2c(-c3ccc4c(c3O)[C@@H](C)N[C@H](C)C4)c(C)cc(OC)c12 [CHEMBL410597] | Inactive | 4.33 |  | 
39 | COc1cc(/C=N\NC(N)=S)ccc1OCc1cn(CC(=O)c2ccc(Cl)cc2)nn1 [CHEMBL4164916] | Active | 5.27 |  | 
40 | O=[N+]([O-])c1ccccc1-c1nc2ccccc2[nH]1 [CHEMBL209918] |  |  | Active | 5.54
41 | C/C(=N/NC(N)=S)c1ccc(OCc2cn(CC(=O)c3ccc(Br)cc3)nn2)cc1 [CHEMBL4166113] |  |  | Active | 6.00
42 | Cc1ccc2cc(/C=C/C(=O)c3cc(C)sc3C)c(Cl)nc2c1 [CHEMBL1940854] |  |  | Active | 5.74
43 | CC(=O)C1=C(CNc2ccc(C(=O)/C=C/c3ccc(O)cc3)cc2)N(C)C(=O)NC1c1ccccc1 (stereo not drawn) [CHEMBL3786140] |  |  | Active | 5.98
44 | CC[C@H](CO)Nc1nc(NCc2ccc(Br)cc2)c2ncn(C(C)C)c2n1 [CHEMBL3423090] | Inactive | 4.71 |  | 
45 | COc1ccccc1-c1nnc(-c2ccc(C(=O)N/N=C/c3ccccc3F)cc2)o1 [CHEMBL4060698] | Active | 5.29 |  | 
46 | COc1ccccc1-c1nnc(-c2ccc(C(=O)N/N=C/c3ccc(O)c(O)c3)cc2)o1 [CHEMBL4092817] |  |  | Active | 6.02
47 | CC(Cl)C(=O)N1c2ccccc2Oc2ccccc21 (stereo not drawn) [CHEMBL3759769] | Inactive | 4.00 |  | 
48 | COC(=O)C1=C(C)NC(C)=C(C(=O)OCCN(C)Cc2ccccc2)C1c1cccc([N+](=O)[O-])c1 (stereo not drawn) [CHEMBL1484] | Inactive | 4.66 |  | 
49 | O=[N+]([O-])c1ccc2nc(-c3ccccc3)[nH]c2c1 [CHEMBL1164403] |  |  | Active | 5.48
50 | C[C@]12CC[C@H](O)C[C@@H]1CC[C@@H]1[C@@H]2CC[C@@]2(C)[C@H]1CC[C@@H]2[C@@](C)(O)c1ccccn1 [CHEMBL1214311] | Inactive | 4.00 |  | 
51 | COc1ccccc1C(=O)N/N=C/c1ccc([N+](=O)[O-])cc1 [CHEMBL2382044] | Inactive | 4.50 |  | 
